{"source": "patent US20230414625A1", "about": "“Combination Antibacterial Composition and Short-Course Antibacterial Regimen” (The Global Alliance for TB Drug Development, Inc., priority 2015, published 2023)", "key": {"[1]": {"assay": "Pharmacokinetics of oxazolidinones after single oral dose, plasma LC/MS", "type": "in vivo, BALB/c mice", "experimental": "Pharmacokinetics of oxazolidinones. Uninfected female BALB/c mice weighing approximately 20 g received single doses of SZD (50 mg/kg), LZD (100 mg/kg), TZD (10 or 20 mg/kg) or AZD (50 or 200 mg/kg). Three mice per dose per time point were sampled by cardiac puncture at 0.5, 1, 2, 4, 8 and 24 hours post-dose (plus an additional 16 hour time point for AZD). Plasma drug concentrations were quantified by a validated LC/MS method performed at AstraZeneca (for AZD only) (14) or Rutgers New Jersey Medical School (for other oxazolidinones). Standards for the different oxazolidinones were provided by the sponsors. At Rutgers, analytes of interest were extracted by combining 20 μl of mouse plasma with 20 μl of acetonitrole:water (1:1), and 180 μl of methanol:acetonitrile (1:1) containing 10 mg/ml of verapamil (Sigma-Aldrich) as internal standard. The mixture was vortexed and centrifuged, and 100 μL of the supernatant was recovered and combined with 10 μL of water for analysis. LC/MS-MS analysis was performed with an Agilent 1260 LC-system coupled to an AB Sciex 4000 Q-trap Mass Spectrometer (positive mode, electrospray ionization), and an Agilent column SB-C8, 2.1×30 mm, 3.5 μm, with the column temperature fixed at 24° C. Mobile phase A was 0.1% formic acid in 100% H2O and mobile phase B was 0.1% formic acid in 100% acetonitrile. Injection volumes were routinely 2 μl. The Mass Selective Detector was set to MRM (multiple reaction monitoring) mode using positive polarity ionization, monitoring for the ions of interest SZD (m/z 354.12/312.04), SZD-M1(370.13/238.12), LZD(338.00/235.00), and TZD(371.12/343.00) and the internal standard (m/z 455.4/165.2). The lower limit of quantification for all oxazolidinones was […]. PK parameters were determined by non-compartmental analysis using WinNonlin 6.4 (Certara, Princeton, NJ)."}, "[2]": {"tested_on": "Mycobacterium tuberculosis H37Rv", "type": "in vivo"}, "cytochrome P450": {"tested_on": "cytochrome P450", "conditions": "cited from earlier work"}, "[3]": {"tested_on": "Gram-positive and Gram-negative bacteria", "conditions": "cited from earlier work"}, "[4]": {"conditions": "female, BALB/c, mouse, in vivo, po, 10 mg/kg"}, "[5]": {"conditions": "female, BALB/c, mouse, in vivo, po, 20 mg/kg"}, "[6]": {"conditions": "female, BALB/c, mouse, in vivo, single oral dose 50 mg/kg, mean, plasma, read-out: AUC0-24 hr"}, "[7]": {"conditions": "female, BALB/c, mouse, in vivo, single oral dose 50 mg/kg, mean, plasma, read-out: Cmax"}, "[8]": {"conditions": "female, BALB/c, mouse, in vivo, single oral dose 50 mg/kg, mean, plasma, read-out: Tmax"}, "[9]": {"conditions": "female, BALB/c, mouse, in vivo, single oral dose 50 mg/kg, mean, plasma, read-out: t1/2 (converted)"}, "[10]": {"conditions": "female, BALB/c, mouse, in vivo, po, 100 mg/kg"}, "[11]": {"conditions": "Example 1, lung, 1 month of treatment, D0 count 6.17±0.27, PMD 50 mg/kg, LZD 100 mg/kg, SZD 50 mg/kg"}, "[12]": {"conditions": "M1 metabolite after single oral dose of sutezolid 50 mg/kg, mean, plasma"}}, "note": "Read-outs that look alike come from different tables or passages of the source.", "data": [{"smiles": "Cn1nnc(-c2ccc(-c3ccc(N4C[C@H](CO)OC4=O)cc3F)cn2)n1", "note": "[TZD, tedizolid]", "values": [{"measurement": "AUC(0-t)", "setting": "[1]; female, BALB/c, mouse, in vivo, 10 mg/kg, total drug AUC0-24 h", "result": 40000, "unit": "ng·h/mL"}, {"measurement": "Cmax", "setting": "[1]; [4]", "result": 6420, "unit": "ng/mL"}, {"measurement": "Tmax", "setting": "[1]; [4]", "result": 42, "unit": "min"}, {"measurement": "half-life", "setting": "[1]; [4]", "result": 180, "unit": "min"}, {"measurement": "AUC(0-t)", "setting": "[1]; female, BALB/c, mouse, in vivo, po, 10 mg/kg, AUC0-24 hr", "result": 40400, "unit": "ng·h/mL"}, {"measurement": "Cmax", "setting": "[1]; [5]", "result": 11400, "unit": "ng/mL"}, {"measurement": "Tmax", "setting": "[1]; [5]", "result": 30, "unit": "min"}, {"measurement": "half-life", "setting": "[1]; [5]", "result": 234, "unit": "min"}, {"measurement": "AUC(0-t)", "setting": "[1]; female, BALB/c, mouse, in vivo, po, 20 mg/kg, AUC0-24 hr", "result": 77700, "unit": "ng·h/mL"}]}, {"smiles": "O=C([C@@H](O)CO)N1CC=C(c2c(F)cc(N3C[C@H](COc4ccon4)OC3=O)cc2F)CC1", "note": "[AZD]", "values": [{"measurement": "predicted AUC0-24 h", "setting": "[1]; 125 mg/kg dose, interpolated between the 50 and 200 mg/kg doses", "result": "160 to 190", "unit": "µg·h/mL"}, {"measurement": "AUC(0-t)", "setting": "[1]; [6]", "result": 74800, "unit": "ng·h/mL"}, {"measurement": "Cmax", "setting": "[1]; [7]", "result": 20400, "unit": "ng/mL"}, {"measurement": "Tmax", "setting": "[1]; [8]", "result": 42, "unit": "min"}, {"measurement": "half-life", "setting": "[1]; [9]", "result": 144, "unit": "min"}, {"measurement": "AUC(0-t)", "setting": "[1]; female, BALB/c, mouse, in vivo, single oral dose 200 mg/kg, mean, plasma, read-out: AUC0-24 hr", "result": 220000, "unit": "ng·h/mL"}, {"measurement": "Cmax", "setting": "[1]; female, BALB/c, mouse, in vivo, single oral dose 200 mg/kg, mean, plasma, read-out: Cmax", "result": 31400, "unit": "ng/mL"}, {"measurement": "Tmax", "setting": "[1]; female, BALB/c, mouse, in vivo, single oral dose 200 mg/kg, mean, plasma, read-out: Tmax", "result": 42, "unit": "min"}, {"measurement": "half-life", "setting": "[1]; female, BALB/c, mouse, in vivo, single oral dose 200 mg/kg, mean, plasma, read-out: t1/2 (converted)", "result": 516, "unit": "min"}]}, {"smiles": "CC(=O)NC[C@H]1CN(c2ccc(N3CCOCC3)c(F)c2)C(=O)O1", "note": "[LZD, (S)—N-[[3-[3-Fluoro-4-(4morpholinyl)phenyl]-2-oxo-5-oxazolidinyl]methyl]-acetamide]", "values": [{"measurement": "Mean (±SD) log10 CFU count at M1", "setting": "[2]; in vivo", "result": "4.97 ± 0.26", "unit": "log10 CFU"}, {"measurement": "Cmax", "setting": "[1]; [10]", "result": 81900, "unit": "ng/mL"}, {"measurement": "Tmax", "setting": "[1]; [10]", "result": 30, "unit": "min"}, {"measurement": "AUC(0-t)", "setting": "[1]; female, BALB/c, mouse, in vivo, po, 100 mg/kg, AUC0-24 h", "result": 244000, "unit": "ng·h/mL"}, {"measurement": "AUC(0-t)", "setting": "[1]; female, BALB/c, mouse, in vivo, po, 100 mg/kg, AUC0-24 hr", "result": 244000, "unit": "ng·h/mL"}, {"measurement": "half-life", "setting": "[1]; female, BALB/c, mouse, single oral dose 100 mg/kg, mean, plasma, read-out: t1/2 (converted)", "result": 180, "unit": "min"}]}, {"smiles": "O=[N+]([O-])c1cn2c(n1)OCC(OCc1ccc(OC(F)(F)F)cc1)C2", "note": "(stereo in doubt) [PMD, (6S)-2-nitro-6-{[4-(trifluoromethoxy)benzyl]oxy}-6,7-dihydro-5H-imidazo[2,1-b][1,3]oxazine]", "values": [{"measurement": "Mean (±SD) log10 CFU count at M1", "setting": "[2]; [11]", "result": "4.57 ± 0.22", "unit": "log10 CFU"}, {"measurement": "cytochrome P450 interactions", "setting": "cytochrome P450", "result": "no significant cytochrome P450 interactions"}, {"measurement": "activity against a broad range of Gram-positive and Gram-negative bacteria", "setting": "[3]", "result": "no significant activity"}]}, {"smiles": "CC(=O)NC[C@H]1CN(c2ccc(N3CC[S+]([O-])CC3)c(F)c2)C(=O)O1", "note": "[Sutezolid M1]", "values": [{"measurement": "AUC0-24 hr", "setting": "[1]; [12]", "result": 31945, "unit": "ng·h/mL"}, {"measurement": "Cmax", "setting": "[1]; [12]", "result": 15233, "unit": "ng/mL"}, {"measurement": "Tmax", "setting": "[1]; [12]", "result": 30, "unit": "min"}, {"measurement": "Cmax relative to SZD parent", "setting": "[1]; after oral SZD 50 mg/kg", "result": "approximately 10 times"}, {"measurement": "mean AUC0-24 h relative to SZD parent", "setting": "[1]; after oral SZD 50 mg/kg", "result": "approximately 10 times"}]}, {"smiles": "CC(=O)NC[C@H]1CN(c2ccc(N3CCSCC3)c(F)c2)C(=O)O1", "note": "[SZD, sutezolid]", "values": [{"measurement": "Mean (±SD) log10 CFU count at M1", "setting": "[2]; [11]", "result": "3.85 ± 0.37", "unit": "log10 CFU"}, {"measurement": "AUC(0-t)", "setting": "[1]; [6]", "result": 3360, "unit": "ng·h/mL"}, {"measurement": "Cmax", "setting": "[1]; [7]", "result": 1290, "unit": "ng/mL"}, {"measurement": "Tmax", "setting": "[1]; [8]", "result": 30, "unit": "min"}, {"measurement": "half-life", "setting": "[1]; [9]", "result": 168, "unit": "min"}]}, {"smiles": "COc1nc2ccc(Br)cc2cc1[C@@H](c1ccccc1)[C@@](O)(CCN(C)C)c1cccc2ccccc12", "note": "[BDQ, (1R, 2S)-1-(6-bromo-2methoxy-3-quinolinyl)-4-(dimethylamino)-2-(1-naphthalenyl)-1-phenyl-2-butanol compound with fumaric acid (1:1)]", "values": [{"measurement": "Mean (±SD) log10 CFU count at M1", "setting": "[2]; [11]", "result": "3.24 ± 0.25", "unit": "log10 CFU"}]}]}
